Results reported in patent publication US20240277890A1, “ANTIMICROBIAL ARTICLES COMPRISING POLYURETHANE” (Amicoat AS, priority 2021, published 2024).
Converted amounts (≈) assume the structure as drawn.

Tests used:
[1] = tested on: Enterococcus faecium vancomycin-susceptible clinical isolate
[2] = tested on: Escherichia coli ATCC25922 - antibiotic-susceptible type strain; settings: ATCC25922
[3] = tested on: Pseudomonas aeruginosa - multi-drug resistant clinical isolate
[4] = tested on: Escherichia coli - multi-drug resistant clinical isolate
[5] = tested on: Streptococcus pyogenes - Macrolide (MLS) resistant clinical isolate
[6] = tested on: Propionibacterium acnes- antibiotic-susceptible clinical isolate; test: MIC microbroth dilution (CLSI); assay type: cell-based; settings: P. acnes antibiotic-susceptible
Protocol: Supplemented Brucella broth (SBB) was used for the anaerobic strains with an inoculum of approximately 10^6 CFU/mL. SBB is a broth consisting of 1% peptone, 0.5% ‘Lab-lemco’, 1% glucose and 0.5% sodium chloride supplemented with 5 μg/L haemin and 1 μg/L vitamin K (both obtained from Sigma Aldrich Ltd.) Yeast and filamentous fungal MIC were performed in MOPS buffered RPMI 1640 medium (MOPS buffer obtained from Sigma Aldrich Ltd., RPMI 1640 obtained from Invitrogen Ltd, Paisley, Scotland). The yeast inocula were in the range 7.5×10^2-4×10^3 CFU/mL and the filamentous fungi approximately 8×10^3-1×10^5 CFU/mL.
MICs were determined as described in Example 2.

[7] = tested on: Streptococcus agalactiae - antibiotic-susceptible clinical isolate
[8] = tested on: Enterococcus faecalis high-level gentamicin-resistant clinical isolate
[9] = tested on: Haemophilus influenzae - β-lactamase positive clinical isolate
[10] = tested on: Methicillin resistant Staphylococcus aureus (MRSA) strain ATCC 33591; settings: ATCC 33591
[11] = tested on: Staphylococcus aureus FDA486; test: Murine skin infection model, one day topical treatment; assay type: in vivo, mice; settings: 2% cream; compared to placebo cream, Fucidin ointment 2% and Bactroban cream 2%
Protocol: The skin of mice was infected with Staphylococcus aureus or Streptococcus pyogenes and subsequently given a total of three treatments at three hourly intervals. Three hours after the last treatment, skin biopsies were collected and the number of colony forming units (CFUs) present in the skin sample was determined. Results are shown in FIGS. 3, 4 and 5 expressed as the number of colony forming units per mouse.

[12] = tested on: Streptococcus pyogenes - Macrolide (M-type) resistance clinical isolate
[13] = tested on: Enterococcus faecium vancomycin-resistant (VanA) clinical isolate
[14] = tested on: EMRSA3 Staphylococcus aureus (MRSA) - SSCmec type 1; settings: EMRSA3 - SSCmec type 1
[15] = tested on: Trichophyton mentagrophytes - G.R. Micro collection
[16] = tested on: Staphylococcus aureus ATCC 29213 - antibiotic-susceptible control strain; settings: ATCC 29213
[17] = tested on: Enterococcus gallinarum vancomycin-resistant (VanC) clinical isolate
[18] = tested on: Listeria monocytogenes - antibiotic-susceptible clinical isolate
[19] = tested on: Salmonella sp - multi-drug resistant clinical isolate; test: MIC microbroth dilution (CLSI); assay type: cell-based
[20] = tested on: Klebsiella aerogenes NCTC11228 - antibiotic-susceptible type strain
[21] = tested on: Staphylococcus aureus ATCC 43300 - methicillin-resistant control strain
[22] = tested on: Pseudomonas aeruginosa ATCC27853 - antibiotic-susceptible type strain; settings: ATCC27853
[23] = tested on: Staphylococcus aureus - methicillin-resistant clinical isolate
[24] = tested on: EMRSA16 Staphylococcus aureus (MRSA) - SSCmec type 2; settings: EMRSA16 - SSCmec type 2
[25] = tested on: Klebsiella aerogenes - multi-drug resistant clinical isolate
[26] = tested on: Staphylococcus epidermidis antibiotic susceptible clinical isolate
[27] = tested on: Streptococcus bovis - macrolide-resistant clinical isolate
[28] = tested on: Group G Streptococcus - macrolide-resistant clinical isolate
[29] = tested on: Morganella morganii - multi-drug resistant clinical isolate
[30] = tested on: Staphylococcus haemolyticus - antibiotic susceptible clinical isolate
[31] = tested on: Staphylococcus aureus, strain ATCC 25923; settings: ATCC 25923
[32] = tested on: Staphylococcus aureus ATCC 25923 - antibiotic-susceptible control strain

SMILES: CCCCCCNC(=O)[C@H](CCCNC(=N)N)NC(=O)[C@H](Cc1c(C(C)(C)C)[nH]c2c(C(C)(C)C)cc(C(C)(C)C)cc12)NC(=O)[C@@H](N)CCCNC(=N)N [Compound 8]
- MIC [1]: 4 µg/mL (≈ 5.21 µM)
- MIC [2]: 4 µg/mL (≈ 5.21 µM)
- MIC [3]: 4 µg/mL (≈ 5.21 µM)
- MIC [4]: 8 µg/mL (≈ 10.4 µM)
- MIC [5]: 8 µg/mL (≈ 10.4 µM)
- MIC [6]: 4 µg/mL (≈ 5.21 µM)
- MIC [7]: 8 µg/mL (≈ 10.4 µM)
- MIC [8]: 8 µg/mL (≈ 10.4 µM)
- MIC [9]: 4 µg/mL (≈ 5.21 µM)
- MRSA (MIC) [10]: 2 µg/mL
- C. albicans (MIC) (C. albicans): 5 µg/mL
- number of CFUs in skin biopsy [11]: more effective at reducing the number of CFUs than the placebo and fucidin or bactroban
- MIC [12]: 8 µg/mL (≈ 10.4 µM)
- MIC [13]: 4 µg/mL (≈ 5.21 µM)
- MIC [14]: 4 µg/mL (≈ 5.21 µM)
- MIC [15]: 4 µg/mL (≈ 5.21 µM)
- MIC [16]: 4 µg/mL (≈ 5.21 µM)
- MIC [17]: 4 µg/mL (≈ 5.21 µM)
- P. aeruginosa (MIC) (P. aeruginosa): 5 µg/mL
- MIC [18]: 8 µg/mL (≈ 10.4 µM)
- MIC [19]: 8 µg/mL (≈ 10.4 µM)
- MIC [20]: 8 µg/mL (≈ 10.4 µM)
- MIC [21]: 4 µg/mL (≈ 5.21 µM)
- MIC [22]: 8 µg/mL (≈ 10.4 µM)
- MIC [23]: 4 µg/mL (≈ 5.21 µM)
- MIC [24]: 4 µg/mL (≈ 5.21 µM)
- MIC [25]: 8 µg/mL (≈ 10.4 µM)
- MIC [26]: 8 µg/mL (≈ 10.4 µM)
- MIC [27]: 2 µg/mL (≈ 2.6 µM)
- MIC [28]: 8 µg/mL (≈ 10.4 µM)
- MIC [29]: 8 µg/mL (≈ 10.4 µM)
- MIC [30]: 4 µg/mL (≈ 5.21 µM)
- S. aureus (MIC) [31]: 2 µg/mL
- MIC [32]: 4 µg/mL (≈ 5.21 µM)
